From patent publication US6812028B1, “Embryogenesis and plant regeneration from microspores” (University of Guelph, priority 1999, dated 2004)

Key:
Assay type in all cases: cell-based
[1] = tested on: barley cv Igri isolated microspores; assay: AGP effect on barley isolated microspore development in liquid FHG medium; details: after 10 days
Source text: The effect of AGP concentration during embryogenic induction of barley microspores in culture was examined. A wide range of concentrations was applied to microspores […]. The AGP addition was effected by adding varying AGP concentrations in liquid FHG medium with 10^5 microspores onto solid FGH medium. Using a drop of microspores on solidified MFHG medium, structures were counted under an inverted microscope. The proportion of alive and dead microspores was not estimated in these plates, but the developing microspores were much higher in the 0 mg control compared to wheat. Thus, the difference in response of barley to AGP at day 10 is not as pronounced as in wheat.

[2] = tested on: spring wheat Pavon 79 isolated microspores; assay: AGP in isolated microspore culture, liquid medium versus filter paper, co-cultured with ovaries; details: for Total # Embryos/Plate: MMS4, with ovaries
Method: […] […] The results are similar for liquid and filter paper at the 3 compared concentrations, and 10 mg/liter of AGP gave the best response.

[3] = tested on: wheat (cv. Pavon 76) microspores; assay: Influence of regeneration media on plant development from wheat microspores; details: AGP in regeneration media
Method: A comparison of regeneration media composition was conducted for wheat microspores induced on a medium in the presence and absence AGP. The regeneration medium was based on MMS4 medium having either 3% sucrose or 9% maltose as a sugar source, or in an AGP-containing medium based on MMS4 with 9% maltose. The microspores were either induced on a support, in this case, a Watman #2 filter disk, or were placed on a solid media in liquid drops. […] Sucrose within the regeneration media was effective in producing a high percentage of green plants, however maltose was also found to be effective. Without wishing to be bound by theory, this may be due to the quicker release of energy from sucrose that is required for regeneration.

[4] = tested on: microspores of spring wheat genotypes Chris and Pavon 79; assay: AGP effect on embryo development from microspores, 0.8 ml drop on solid MMS4 with 3-4 ovaries; details: for avg. # embryos: genotype Chris, 5 reps; for # embryos: genotype Pavon 79, 3 reps
Method: The effect of AGP on microspore embryogenesis in the presence of ovary co-culture was assessed using Chris and Pavon 79 wheat genotypes. Media comprising 5 mg/liter and 10 mg/liter of AGP were compared with a control medium, on microspore embryogenesis in the presence of ovary co-culture. The results in Table 9 indicate that overall response of Chris to AGP is higher than the response of Pavon 79.

[5] = tested on: spring wheat Pavon 79 microspores; assay: AGP concentrations in microspore culture in MMS4 liquid media; details: for # at Day 12 Alive / # at Day 12 Dead / # at Day 12 Dividing / # at Day 12 ELS / # at Day 12 Multicellular / # at Day 12 Total Developing / Day 50 # of embryos: 4 rep average
Method: In an experiment with Pavon 79, concentrations of 0, 10, 25, 50, 100, 500 and 1000 mg/L were used in microspore culture with 4 ovaries around a drop of liquid medium with microspores on top of solidified medium. […] However, higher concentrations can also be used. […] It was observed that 10 to 14 days in induction medium with AGP may be maximal as it appears that regeneration may be reduced with longer periods on medium with AGP.

Q: arabinogalactan protein [AGP] was tested. Which Dividing within microspore ([1]; AGP 2 mg/L) did it give?
A: 39600

Q: What about the “Free Multicellulars” value ([1]; AGP 2 mg/L) of the same substance?
A: 33550

Q: And the “Total Developing” value ([1]; AGP 2 mg/L)?
A: 73150

Q: And the Dividing within microspore ([1]; AGP 5 mg/L)?
A: 43000

Q: What about the “Free Multicellulars” value ([1]; AGP 5 mg/L) of the same substance?
A: 38230

Q: What about the “Total Developing” value ([1]; AGP 5 mg/L) of the same substance?
A: 81230

Q: What about the Dividing within microspore ([1]; AGP 10 mg/L) of the same substance?
A: 45280

Q: And the “Free Multicellulars” value ([1]; AGP 10 mg/L)?
A: 35750

Q: What about the “Total Developing” value ([1]; AGP 10 mg/L) of the same substance?
A: 81030

Q: What about the Dividing within microspore ([1]; AGP 25 mg/L) of the same substance?
A: 39880

Q: And the “Free Multicellulars” value ([1]; AGP 25 mg/L)?
A: 36030

Q: What about the “Total Developing” value ([1]; AGP 25 mg/L) of the same substance?
A: 75910

Q: What about the Dividing within microspore ([1]; AGP 50 mg/L) of the same substance?
A: 37120

Q: What about the “Free Multicellulars” value ([1]; AGP 50 mg/L) of the same substance?
A: 39880

Q: What about the “Total Developing” value ([1]; AGP 50 mg/L) of the same substance?
A: 77000

Q: What about the Dividing within microspore ([1]; AGP 100 mg/L) of the same substance?
A: 42900

Q: And the “Free Multicellulars” value ([1]; AGP 100 mg/L)?
A: 37730

Q: And the “Total Developing” value ([1]; AGP 100 mg/L)?
A: 80630

Q: And the Dividing within microspore ([1]; AGP 500 mg/L)?
A: 35890

Q: And the “Free Multicellulars” value ([1]; AGP 500 mg/L)?
A: 37810

Q: And the “Total Developing” value ([1]; AGP 500 mg/L)?
A: 73700

Q: And the Dividing within microspore ([1]; AGP 1000 mg/L)?
A: 38500

Q: What about the “Free Multicellulars” value ([1]; AGP 1000 mg/L) of the same substance?
A: 41600

Q: What about the “Total Developing” value ([1]; AGP 1000 mg/L) of the same substance?
A: 80100

Q: And the “embryo response in liquid and on filter paper” value ([2]; 10 mg/liter of AGP compared with 0 and 5 mg/liter)?
A: best response

Q: And the “Total # Embryos/Plate” value ([2]; AGP 1 mg/L, Liquid)?
A: 2130

Q: What about the “Total # Embryos/Plate” value ([2]; AGP 5 mg/L, Filter) of the same substance?
A: 3080

Q: And the “Total # Embryos/Plate” value ([2]; AGP 5 mg/L, Liquid)?
A: 3393

Q: What about the “Total # Embryos/Plate” value ([2]; AGP 10 mg/L, Filter) of the same substance?
A: 4528

Q: And the “Total # Embryos/Plate” value ([2]; AGP 10 mg/L, Liquid)?
A: 4250

Q: And the “effect of addition of AGP to the regeneration media on green plants” value [3]?
A: reduced the number of green plants produced

Q: And the “avg. # embryos” value ([4]; AGP 5 mg/L)?
A: 5618

Q: What about the “# embryos” value ([4]; AGP 5 mg/L) of the same substance?
A: 4155

Q: And the “avg. # embryos” value ([4]; AGP 10 mg/L)?
A: 9836

Q: And the “# embryos” value ([4]; AGP 10 mg/L)?
A: 4681

Q: What about the “# at Day 12 Alive” value ([5]; AGP 10 mg/L) of the same substance?
A: 69.3

Q: And the “# at Day 12 Dead” value ([5]; AGP 10 mg/L)?
A: 58.9

Q: And the “# at Day 12 Dividing” value ([5]; AGP 10 mg/L)?
A: 23.9

Q: And the “# at Day 12 ELS” value ([5]; AGP 10 mg/L)?
A: 8.7

Q: What about the “# at Day 12 Multicellular” value ([5]; AGP 10 mg/L) of the same substance?
A: 33.8

Q: And the “# at Day 12 Total Developing” value ([5]; AGP 10 mg/L)?
A: 66.4

Q: And the “Day 50 # of embryos” value ([5]; AGP 10 mg/L)?
A: 4493

Q: And the “# at Day 12 Alive” value ([5]; AGP 25 mg/L)?
A: 66.6

Q: And the “# at Day 12 Dead” value ([5]; AGP 25 mg/L)?
A: 69.3

Q: And the “# at Day 12 Dividing” value ([5]; AGP 25 mg/L)?
A: 13.6

Q: And the “# at Day 12 ELS” value ([5]; AGP 25 mg/L)?
A: 10.3

Q: What about the “# at Day 12 Multicellular” value ([5]; AGP 25 mg/L) of the same substance?
A: 38

Q: What about the “# at Day 12 Total Developing” value ([5]; AGP 25 mg/L) of the same substance?
A: 61.9

Q: What about the “Day 50 # of embryos” value ([5]; AGP 25 mg/L) of the same substance?
A: 3538

Q: And the “# at Day 12 Alive” value ([5]; AGP 50 mg/L)?
A: 47.9

Q: And the “# at Day 12 Dead” value ([5]; AGP 50 mg/L)?
A: 75

Q: What about the “# at Day 12 Dividing” value ([5]; AGP 50 mg/L) of the same substance?
A: 10.7

Q: What about the “# at Day 12 ELS” value ([5]; AGP 50 mg/L) of the same substance?
A: 5

Q: And the “# at Day 12 Multicellular” value ([5]; AGP 50 mg/L)?
A: 13.2

Q: What about the “# at Day 12 Total Developing” value ([5]; AGP 50 mg/L) of the same substance?
A: 28.9

Q: And the “Day 50 # of embryos” value ([5]; AGP 50 mg/L)?
A: 471

Q: What about the “# at Day 12 Alive” value ([5]; AGP 100 mg/L) of the same substance?
A: 66.4

Q: What about the “# at Day 12 Dead” value ([5]; AGP 100 mg/L) of the same substance?
A: 61

Q: And the “# at Day 12 Dividing” value ([5]; AGP 100 mg/L)?
A: 17.3

Q: And the “# at Day 12 ELS” value ([5]; AGP 100 mg/L)?
A: 2.9

Q: What about the “# at Day 12 Multicellular” value ([5]; AGP 100 mg/L) of the same substance?
A: 32.2

Q: What about the “# at Day 12 Total Developing” value ([5]; AGP 100 mg/L) of the same substance?
A: 52.4

Q: And the “Day 50 # of embryos” value ([5]; AGP 100 mg/L)?
A: 3709

Q: And the “# at Day 12 Alive” value ([5]; AGP 500 mg/L)?
A: 57.3

Q: And the “# at Day 12 Dead” value ([5]; AGP 500 mg/L)?
A: 61

Q: What about the “# at Day 12 Dividing” value ([5]; AGP 500 mg/L) of the same substance?
A: 19.4

Q: And the “# at Day 12 ELS” value ([5]; AGP 500 mg/L)?
A: 4.5

Q: What about the “# at Day 12 Multicellular” value ([5]; AGP 500 mg/L) of the same substance?
A: 27.7

Q: What about the “# at Day 12 Total Developing” value ([5]; AGP 500 mg/L) of the same substance?
A: 51.6

Q: And the “Day 50 # of embryos” value ([5]; AGP 500 mg/L)?
A: 3267

Q: And the “# at Day 12 Alive” value ([5]; AGP 1000 mg/L)?
A: 69.3

Q: What about the “# at Day 12 Dead” value ([5]; AGP 1000 mg/L) of the same substance?
A: 56

Q: What about the “# at Day 12 Dividing” value ([5]; AGP 1000 mg/L) of the same substance?
A: 14.8

Q: And the “# at Day 12 ELS” value ([5]; AGP 1000 mg/L)?
A: 7

Q: And the “# at Day 12 Multicellular” value ([5]; AGP 1000 mg/L)?
A: 28.5

Q: And the “# at Day 12 Total Developing” value ([5]; AGP 1000 mg/L)?
A: 50.3

Q: What about the “Day 50 # of embryos” value ([5]; AGP 1000 mg/L) of the same substance?
A: 1821

Q: What about the “microspore viability at day 12 versus control with no AGP” value ([5]; AGP 10-1000 mg/L, Pavon 79) of the same substance?
A: not significantly different from the control value

Q: And the “embryogenesis across AGP concentrations” value ([5]; AGP concentrations of 10 or 25 mg/liter)?
A: optimal embryogenesis

Q: And the “total number of developing structures” value ([5]; in the presence of AGP, day 12, Pavon 79)?
A: improved
